Assay [1] deals with platelet aggregation. Nature of the assay: in vitro platelet aggregation inhibiting activity (sodium arachidonate as aggregating agent). Particulars: guinea pigs PRP, final concentration 0.1 millimole, minimum final concentration whose inhibiting rate exceeded 50 %. In kind it is cell-based. The protocol: The platelet aggregation inhibiting activities in vitro of test drugs including the acylated indole derivatives of this invention were assayed using guinea pigs PRP.
As an aggregating agent, sodium arachidonate having a final concentration of 0.1 millimole was used.
The citrated blood was centrifuged at 1000 rpm for 10 minutes at room temperature, and the supernatant liquid (PRP) was separated.
The resulting PRP was stored at room temperature, and used as early as possible. PRP stored for more than 4 hours was not used.
A compound having a free carboxylic acid as a residue, such as Indomethacin and Ibprofen, was dissolved in O.lM NaHC03 to provide a sodium salt solution having a concentration of 10 mg/ml. The solution was similarly diluted with physiological saline to prepare a solution of a test drug.
The solution was diluted with physiological saline to form a 1mM solution which was used in the test.
50 µℓ of physiological saline and 50 µℓ of the aggregating agent solution were added to 400 µℓ of PRP which had been warmed in a cuvette at 37°C in an aggregometer to aggregate the platelet. The aggregation curve was recorded for 3 minutes by an aggregometer (a product of Bryston Company). The maximum degree of aggregation in this platelet aggregation was defined as the maximum degree of aggregation in the blank.
Then, 50 µℓ of a 1mM solution of sodium arachidonate was added, and the platelet aggregation curve was recorded in the same way as in (1) above. From the curve, the maximum degree of aggregation was calculated, and the inhibiting rate was calculated in accordance with the following equation. Maximum degree of aggregation Inhibiting 100 - in the Ibprofen-added system 100 rate (%) Maximum degree of aggregation in the blank
If these inhibiting rates are not attained, the concentration of the solution of sodium arachidonate is not suitable, and therefore, its concentration should be re-adjusted, and the test shall be performed again.
50 µℓ of the test compound solution was added to 400 µℓ of PRP, and the mixture was pre-incubated in the same way as in(2) above. Then, 50 µℓ of the solution of sodium arachidonate having its concentration adjusted in (2) was added, and the aggregation curve was recorded for 3 minutes. The maximum degree of aggregation of platelet within this period was measured, and the rate of inhibition was calculated from the following equation. […] Maximum degree of aggregation Inhibiting _ 100 - in the drug-added system x 100 rate (%) Maximum degree of aggregation in the blank
For details of the in vitro platelet aggregation inhibiting test, see H. M. Davis, J. Phyllis, K. Paul and W. Terry: Thromb. […] Haemos.

Assay [2] concerns platelet aggregation. Nature of the assay: extra vivo platelet aggregation inhibiting activity after oral administration, collagen as aggregating agent. It counts as in vivo, guinea pigs. The conditions noted are these: Cavia porcellus. The protocol:
The collagent floating solution made by Hormone Company of west Germany was diluted with physiological saline to a concentration of 100 µg/ml for use in the test.
(§1) The platelet aggregation inhibiting activities extra vivo of drugs sampled at random were examined using guinea pigs.
(§2) The drugs were used dissolved in propylene glycol to a concentration of 1 mg/ml (when the dosage was 1 mg/kg), 10 mg/ml (when the dosage was 10 mg/kg), and 30 mg/ml (when the dosage was 30 mg/kg). The drugs were administered orally to male Hartley guinea pigs (three in a group) having a body weight of 300 to 350 g. Propylene glycol was administered to a control group.
(§3) One hour, or 4 hours after the administration, citrated blood was taken out from the subject by cardiac puncture.
(§4) The guinea pigs were caused to fast overnight before use.
(§5) The inhibiting rate of the test drugs was measured as follows: • 450 µℓ of PRP was put into a cuvette of an aggregometer, and then 50 µℓ of the aggregating agent was added. The aggregation curve was recorded for 3 minutes, and the maximum degree of aggregation was measured. As a blank, the maximum degree of aggregation of PRP of the group of guinea pigs to which propylene glycol had been administered was measured. The rate of inhibition was calculated from the following equation. [formula]
(§6) As the aggregating agent, 0.03 mM (final concentration sodium arachidonate and 5 µg/ml (final concentration) collagen floating solution were used.
For details of the extra vivo platelet aggregation inhibiting test, see Davis. H. M., Phyllis, J., Paul, K and Terry, W.: Thromb. Res. 11, 217-226 (1977) and Anderson R. E. and Foulks J. G.: Thromb. Haemos. 36, 343-359 (1976).

Assay [3] deals with platelet aggregation. Put plainly: extra vivo platelet aggregation inhibiting activity after oral administration, sodium arachidonate as aggregating agent. It counts as in vivo, guinea pigs. Particulars: Cavia porcellus, 0.03 mM sodium arachidonate; for inhibition at 10 mg/kg: oral dosage 10 mg/kg; for inhibition at 1 mg/kg: oral dosage 1 mg/kg. The protocol: as §1, §2, §3, §4, §5, §6
For details of the extra vivo platelet aggregation inhibiting test, see Davis. H. M., Phyllis, J., Paul, K and Terry, W.: Thromb. […] Haemos.

Setting [4] is: Cavia porcellus, Platelet, read-out: IC50.
Setting [5] is: po, 1 h, read-out: Rate of inhibition of platelet aggregation, Collagen, After 1 hour.
Where [6] appears, read: po, 4 h, read-out: Rate of inhibition of platelet aggregation, Collagen, After 4 hours.
[7] abbreviates: blood taken 1 hour after administration, read-out: Rate of inhibition of platelet aggregation, Sodium arachidonate, After 1 hour.
The mark [8] stands for this setting: blood taken 4 hours after administration, read-out: Rate of inhibition of platelet aggregation, Sodium arachidonate, After 4 hours.

≈ marks a conversion by molar mass, not a printed value. Like-named read-outs stand apart in the source and are kept apart here.

Regarding `CCC(CO)n1c(C)c(C(=O)c2ccccc2)c2ccccc21` (stereo not shown) [(101), 3-Benzoyl-1-(1-hydroxy-2-butyl)-2-methylindole], the IC50 in the assay on platelet aggregation [1] (setting [4]) came out at 0.1 µg/mL (≈ 0.325 µM). In addition, the inhibition at 10 mg/kg with platelet aggregation [2] (setting [5]) worked out at 100%; with platelet aggregation [2] (setting [6]) it was 100%; in the assay on platelet aggregation [3] (setting [7]), 99%; with platelet aggregation [3] (setting [8]), 99%.
For `Cc1[nH]c2ccccc2c1C(=O)c1ccc(Cl)cc1` [Comparison 6, reference compound], the inhibition at 10 mg/kg with platelet aggregation [2] (oral dosage 10 mg/kg, 5 µg/ml collagen floating solution, blood taken 1 hour after administration, read-out: Rate of inhibition of platelet aggregation, Collagen, After 1 hour) turned out to be 36%; in the assay on platelet aggregation [2] (oral dosage 10 mg/kg, 5 µg/ml collagen floating solution, blood taken 4 hours after administration, read-out: Rate of inhibition of platelet aggregation, Collagen, After 4 hours), 28.9%; with platelet aggregation [3] (setting [7]), 12.3%; with platelet aggregation [3] (setting [8]), 6%.
Regarding `Cc1c(C(=O)c2ccccc2)c2ccccc2n1C(C)C(=O)O` (stereo not shown) [Comparison 1, reference compound], in the assay with platelet aggregation [1] (setting [4]), the half-maximal inhibitory concentration (IC50) was 50 µg/mL (≈ 163 µM).
Consider `Cc1c(C(=O)c2ccccc2)c2ccccc2n1C(C)C[S+]([O-])c1ccccc1` (stereo not shown) [(501), 1-(1-Benzenesulfinyl-2-propyl)-3-benzoyl-2-methylindole], for which the inhibition at 10 mg/kg with platelet aggregation [2] (setting [5]), with platelet aggregation [2] (setting [6]), in the assay with platelet aggregation [3] (setting [7]) and in the assay on platelet aggregation [3] (setting [8]) was 100% throughout.
Take `CCOCC(CC)n1c(C)c(C(=O)c2ccccc2)c2ccccc21` (stereo not shown) [(312), 3-Benzoyl-1-(1-ethoxy-2-butyl)-2-methylindole]: the concentration for half-maximal inhibition (IC50) in the assay on platelet aggregation [1] (setting [4]) amounted to 0.25 µg/mL (≈ 0.745 µM). In addition, the inhibition at 10 mg/kg in the assay on platelet aggregation [2] (setting [5]), in the assay on platelet aggregation [2] (setting [6]), in the assay on platelet aggregation [3] (setting [7]) and in the assay on platelet aggregation [3] (setting [8]) was 100% throughout.
In the case of `CCC(C)n1c(C)c(C(=O)c2ccccc2)c2ccccc21` (stereo not shown) [(701), 3-Benzoyl-1-(2-butyl)-2-methylindole], the inhibition at 10 mg/kg with platelet aggregation [3] (setting [7]) and in the assay with platelet aggregation [3] (setting [8]) was 100% throughout.
For `Cc1c(C(=O)c2ccccc2)c2ccccc2n1[C@H](C)CO` [(135), 3-Benzoyl-1-[1-hydroxy-2(R)-propyl]-2-methylindole], the 50% inhibitory concentration (IC50) in the assay on platelet aggregation [1] (setting [4]) is 0.025 µg/mL (≈ 0.0852 µM).
Take `Cc1c(C(=O)c2ccccc2)c2ccccc2n1C(C)CCO` (stereo not drawn) [(105), 3-Benzoyl-l-(4-hydroxy-2-butyl)-2-methylindole]: the IC50 in the assay with platelet aggregation [1] (setting [4]) came to 0.075 µg/mL (≈ 0.244 µM). Also, the inhibition at 10 mg/kg in the assay on platelet aggregation [2] (setting [5]), in the assay on platelet aggregation [2] (setting [6]), with platelet aggregation [3] (setting [7]) and in the assay on platelet aggregation [3] (setting [8]) was 100% in each case.
`CCOCCC(C)n1c(C)c(C(=O)c2ccccc2)c2ccccc21` (stereo not shown) [(307), 3-Benzoyl-1-(4-ethoxy-2-butyl)-2-methylindole]: in the assay with platelet aggregation [1] (setting [4]), the half-maximal inhibitory concentration (IC50) came to 0.25 µg/mL (≈ 0.745 µM). In addition, the inhibition at 10 mg/kg in the assay with platelet aggregation [2] (setting [5]) worked out at 98.3%; in the assay with platelet aggregation [2] (setting [6]), 100%; in the assay with platelet aggregation [3] (setting [7]) it was 100%; with platelet aggregation [3] (setting [8]), 100%.
Consider `COCC(C)n1c(C)c(C(=O)c2ccccc2)c2cc(OC)ccc21` (stereo not shown) [(318), 3-Benzoyl-5-methoxy-1-(1-methoxy-2-propyl)-2-methylindole], for which the IC50 with platelet aggregation [1] (setting [4]) worked out at 0.75 µg/mL (≈ 2.22 µM). For the same compound, the inhibition at 10 mg/kg in the assay on platelet aggregation [2] (setting [5]) was 97.7%; in the assay with platelet aggregation [2] (setting [6]), 0.5%; with platelet aggregation [3] (setting [7]), 100%; in the assay on platelet aggregation [3] (setting [8]), 14%.
For `Cc1c(C(=O)c2ccccc2)c2cc(O)ccc2n1C(C)CO` (stereo not shown) [(117), 3-Benzoyl-5-hydroxy-1-(1-hydroxy-2-propyl)-2-methylindole], the IC50 in the assay on platelet aggregation [1] (setting [4]) is 0.25 µg/mL (≈ 0.808 µM). In addition, the inhibition at 10 mg/kg in the assay with platelet aggregation [2] (setting [5]) worked out at 72.1%; with platelet aggregation [2] (setting [6]) it was 2.2%; in the assay on platelet aggregation [3] (setting [7]), 100%; in the assay on platelet aggregation [3] (setting [8]), 8.6%.
With `CC(=O)OCC(C)n1c(C)c(C(=O)c2ccccc2)c2ccccc21` (stereo not shown) [(200), 1-(1-Acetoxy-2-propyl)-3-benzoyl-2-methylindole], the IC50 in the assay with platelet aggregation [1] (setting [4]) was determined as 0.075 µg/mL (≈ 0.224 µM). Further, the inhibition at 1 mg/kg amounted to 90% with platelet aggregation [3] (setting [7]) and 91.8% in the assay on platelet aggregation [3] (setting [8]).
For the compound `CC(=O)OCCC(C)n1c(C)c(C(=O)c2ccccc2)c2ccccc21` (stereo not shown) [(201), 1-(4-acetoxy-2-butyl)-3-benzoyl-2-methylindole], the concentration for half-maximal inhibition (IC50) with platelet aggregation [1] (setting [4]) is 0.075 µg/mL (≈ 0.215 µM). For the same compound, the inhibition at 10 mg/kg in the assay with platelet aggregation [2] (setting [5]), in the assay on platelet aggregation [2] (setting [6]), with platelet aggregation [3] (setting [7]) and in the assay on platelet aggregation [3] (setting [8]) was 100% each time.
For `COCCn1c(C)c(C(=O)c2ccccc2)c2ccccc21` [Comparison 4, reference compound], the inhibition at 10 mg/kg is 38% in the assay on platelet aggregation [2] (setting [5]), 7.6% with platelet aggregation [2] (setting [6]), 45.5% in the assay with platelet aggregation [3] (setting [7]) and 7.1% with platelet aggregation [3] (setting [8]).
Taken in the same sequence, the figures for `Cc1c(C(=O)c2ccccc2)c2ccccc2n1C(C)CCS` (stereo not shown) [(423), 3-Benzoyl-1-(4-mercapto-2-butyl)-2-methylindole] were 100%, 100%, 100% and 100%.
Consider `Cc1c(C(=O)c2ccccc2)c2ccccc2n1[C@@H](C)CO` [(136), 3-Benzoyl-1-(1-hydroxy-2(S)-propyl]-2-methylindole], for which the half-maximal inhibitory concentration (IC50) in the assay on platelet aggregation [1] (setting [4]) is 0.05 µg/mL (≈ 0.17 µM).
Still for that read-out and setting: to `Cc1[nH]c2ccccc2c1C(=O)c1ccccc1` [Comparison 2, reference compound] belongs 5 µg/mL (≈ 21.3 µM).
As to `Cc1c(C(=O)c2ccccc2)c2ccccc2n1C(C)CCSc1ccccn1` (stereo not drawn) [(414), 3-Benzoyl-2-methyl-l-(4-(2-pyridylthio)-2-butyl]indole], the inhibition at 10 mg/kg with platelet aggregation [3] (setting [7]) and in the assay on platelet aggregation [3] (setting [8]) was 100% each time.
Regarding `CSCC(C)n1c(C)c(C(=O)c2ccccc2)c2ccccc21` (stereo not shown) [(402), 3-Benzoyl-2-methyl-1-(1-methylthio-2-propyl)-indole], the IC50 in the assay on platelet aggregation [1] (setting [4]) was 0.075 µg/mL (≈ 0.232 µM).
Take `COCC(C)n1c(C)c(C(=O)c2cccs2)c2ccccc21` (stereo not shown) [(315), 1-(1-Methoxy-2-propyl)-2-methyl-3-thenoylindole]: the concentration for half-maximal inhibition (IC50) with platelet aggregation [1] was 0.01 to 0.1 µg/mL.
Turning to `CCSCC(CC)n1c(C)c(C(=O)c2ccccc2)c2ccccc21` (stereo not shown) [(417), 3-Benzoyl-1-(1-ethylthio-2-butyl)-2-methylindole], the inhibition at 10 mg/kg with platelet aggregation [2] (setting [5]) came to 100%; with platelet aggregation [2] (setting [6]) it was 100%; in the assay on platelet aggregation [3] (setting [7]) it was 100%; with platelet aggregation [3] (setting [8]), 37%.
Turning to `COC[C@@H](C)n1c(C)c(C(=O)c2ccccc2)c2ccccc21` [(346), 3-Benzoyl-1-[1-methoxy-2(R)-propyl]-2-methylindole], in the assay with platelet aggregation [1] (setting [4]), the IC50 came to 0.05 µg/mL (≈ 0.163 µM).
Same read-out and setting: to `COC[C@H](C)n1c(C)c(C(=O)c2ccccc2)c2ccccc21` [(347), 3-benzoyl-1-[1-methoxy-2(S)-propyl)-2-methylindole] belongs 0.075 µg/mL (≈ 0.244 µM).
